Measurements published in patent US9642354B2, “Method of freezing cells” (Cellulis, S.L., priority 2010, dated 2017).

Legend:
Smac cells = test: Cytotoxic test (MTT assay) on smooth muscle aortic cells (SMAC) thawed from two-layer frozen 96-well plate; assay type: cell-based, rat; details: 24 h treatment started 24 h post-thawing, 5-Fluorouracil 20, 40, 80, 100 μg/ml, Tamoxifen 0.02, 1.25, 2.5, 5 μM
Procedure: (§1) Balb3T3 (ATCC, LCC Standards) fibroblasts and smooth muscle aortic cells (SMAC, freshly isolated from Sprague Dawley rats, Harlan Laboratories) primary cells were cultured in complete culture medium consisting of endotoxin-free DMEM (Sigma-Aldrich) supplemented with 10% FCS, 100 μg/ml penicillin and 100 IU/ml streptomycin (Sigma-Aldrich). […] The resulting cells were allowed to grow for twelve days prior to cryopresentation. Both cell types were grown in flasks until they were 80% confluent and then harvested. Harvesting took place by incubating cells in 5 ml of PBS with 0.05% EDTA for 2 minutes, and final detachment was achieved by incubation in 0.1% trypsin and 0.05% EDTA for another 5 minutes. Cells were centrifuged at 400×G for 5 minutes. Then, a total of 4.8 ml of a solution at 4° C. containing 50,000 cells/50 μl of freezing 80% DMEM, 10% FCS, 10% DMSO (AppliChem) medium was prepared (cell density determined by haemocytometer), forming the so-called freezing solution. Besides, 100 μl of complete culture medium was disposed in each cell of a 96-well plate and frozen down to −80° C. Once frozen, the plate is recovered and 50 μl/well of the said freezing solution were added on top each well containing 100 μl of complete culture medium already frozen. […] Twenty four hours later a MTT assay was performed and cytotoxicity was calculated according to the absorbance values. […]

BALB3T3 cells = test: Cytotoxic test (MTT assay) on Balb3T3 fibroblasts thawed from two-layer frozen 96-well plate; assay type: cell-based; details: 24 h treatment started 24 h post-thawing, 5-Fluorouracil 20, 40, 80, 100 μg/ml, Tamoxifen 0.02, 1.25, 2.5, 5 μM
Procedure: as §1

Row | Compound | cytotoxic response of Smac cells (Smac cells) | cytotoxic response of BALB3T3 cells (BALB3T3 cells)
1 | O=c1[nH]cc(F)c(=O)[nH]1 [5-Fluorouracil] | Concentration dependent cytotoxic response | Concentration dependent cytotoxic response
2 | CC/C(=C(\c1ccccc1)c1ccc(OCCN(C)C)cc1)c1ccccc1 [Tamoxifen] | Concentration dependent cytotoxic response | Concentration dependent cytotoxic response
